The subject of the assay is SARS-COV-2. Kind of assay: SARS-COV-2 Cytopathic Effect (CPE) reduction assay in Vero E6 cells. In kind it is cell-based. The note with it: Severe acute respiratory syndrome coronavirus 2, Vero C1008, 72 h. On the technique in general: Cytopathic effects are the visible damage that an infection or toxin causes in cultured cells.

For the compound `CCC(CC)COC(=O)[C@H](C)N[P@](=O)(OC[C@H]1O[C@@](C#N)(c2ccc3c(N)ncnn23)[C@H](O)[C@@H]1O)Oc1ccccc1` [Remdesivir, reference compound], it took 4.5 µM to reach a half-maximal effect (EC50).
